From the supplement of paper PMC10307832 come the findings set out here.

Assay in all cases: relative viability (nuclei count vs DMSO), 5 days (fraction); higher = more cells survive
Compound in assay [1]: C1=CC(=CC=C1C2=CC(=C(S2)NC(=O)N)C(=O)N)F [TPCA-1] + CC(C)C[C@H](NC(=O)[C@H](Cc1ccccc1)NC(=O)c1cnccn1)B(O)O [Bortezomib] (partner 0.002 µM)
A digest of the protocol: (§1)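 Lung cancer cell lines were pin-tool dosed in 1536-well plates on the day after seeding, with either a lone drug or a fixed anchor-drug dose plus five library-drug doses (not always all listed) in √10 steps. Nuclei were counted on 4× images after 5 days. Relative viability is the ratio of treated-well to vehicle-well nuclei counts, with each value a median of duplicate plates.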

Compound in assay [2]: C1/C(=C\C2=CC=CS2)/C(=O)/C(=C/C3=CC=CS3)/C1 + N=C(N)NC(=N)NCCc1ccccc1 [Phenformin] (partner 250 µM)
The gist of the method:
as §1

Compound in assay [3]: C1/C(=C\C2=CC=CS2)/C(=O)/C(=C/C3=CC=CS3)/C1 + COc1cccc2cc(-c3nc([C@H]4CC[C@H](C(=O)O)CC4)n4ncnc(N)c34)[nH]c12 [OSI-027] (partner 0.5 µM)
The gist of the method: as §1

Compound in assay [4]: C[C@]12O[C@H](C[C@]1(O)CO)n1c3ccccc3c3c4c(c5c6ccccc6n2c5c31)CNC4=O [Lestaurtinib] + CC(C)C[C@H](NC(=O)[C@H](Cc1ccccc1)NC(=O)c1cnccn1)B(O)O [Bortezomib] (partner 0.002 µM)
A digest of the protocol: as §1

Regarding NCI-H2405, the relative viability in assay [1] (first compound 0.04 µM) was found to be 0.988; in assay [1] (first compound 0.1265 µM), 0.843; in assay [1] (first compound 0.4 µM) it was 1.02; in assay [1] (first compound 1.265 µM) it was 0.92; in assay [1] (first compound 4 µM), 0.289; in assay [2] (first compound 0.2 µM), 0.404. Further, the relative viability in assay [2] (first compound 0.6325 µM) turned out to be 0.386; in assay [2] (first compound 2 µM), 0.441; in assay [2] (first compound 6.325 µM), 0.413; in assay [2] (first compound 20 µM) it was 0.402; in assay [3] (first compound 0.2 µM), 0.619; in assay [3] (first compound 0.6325 µM), 0.633. The relative viability is 0.705 in assay [3] (first compound 2 µM); 0.497 in assay [3] (first compound 6.325 µM); 0.624 in assay [3] (first compound 20 µM); 1 in assay [4] (first compound 0.005 µM); 1.01 in assay [4] (first compound 0.01581 µM); 0.883 in assay [4] (first compound 0.05 µM). Also, the relative viability was 0.977 in assay [4] (first compound 0.1581 µM) and 0.734 in assay [4] (first compound 0.5 µM).
For the cell line NCI-H3122, the relative viability was found to be 1.09 in assay [1] (first compound 0.04 µM); 0.983 in assay [1] (first compound 0.1265 µM); 1.08 in assay [1] (first compound 0.4 µM); 1.01 in assay [1] (first compound 1.265 µM); 0.975 in assay [1] (first compound 4 µM); 0.442 in assay [2] (first compound 0.2 µM). Moreover, the relative viability in assay [2] (first compound 0.6325 µM) is 0.377; in assay [2] (first compound 2 µM), 0.41; in assay [2] (first compound 6.325 µM), 0.307; in assay [2] (first compound 20 µM), 0.333; in assay [3] (first compound 0.2 µM) it was 1.17; in assay [3] (first compound 0.6325 µM) it was 0.956. Besides, the relative viability came out at 1 in assay [3] (first compound 2 µM); 0.889 in assay [3] (first compound 6.325 µM); 1.01 in assay [3] (first compound 20 µM); 1.06 in assay [4] (first compound 0.005 µM); 1.05 in assay [4] (first compound 0.01581 µM); 1.06 in assay [4] (first compound 0.05 µM). Moreover, the relative viability in assay [4] (first compound 0.1581 µM) worked out at 1.05; in assay [4] (first compound 0.5 µM), 0.502.
As for PC-3 [JPC-3], the relative viability in assay [1] (first compound 0.04 µM) came out at 0.896; in assay [1] (first compound 0.1265 µM), 0.812; in assay [1] (first compound 0.4 µM) it was 0.833; in assay [1] (first compound 1.265 µM), 0.792; in assay [1] (first compound 4 µM) it was 0.851; in assay [2] (first compound 0.2 µM) it was 0.494. In addition, the relative viability in assay [2] (first compound 0.6325 µM) stood at 0.495; in assay [2] (first compound 2 µM), 0.452; in assay [2] (first compound 6.325 µM), 0.423; in assay [2] (first compound 20 µM), 0.458; in assay [3] (first compound 0.2 µM), 0.774; in assay [3] (first compound 0.6325 µM), 0.715. The relative viability in assay [3] (first compound 2 µM) amounted to 0.719; in assay [3] (first compound 6.325 µM), 0.552; in assay [3] (first compound 20 µM), 0.778; in assay [4] (first compound 0.005 µM) it was 0.82; in assay [4] (first compound 0.01581 µM) it was 0.788; in assay [4] (first compound 0.05 µM) it was 0.738. Further, the relative viability was 0.914 in assay [4] (first compound 0.1581 µM) and 0.746 in assay [4] (first compound 0.5 µM).
As for PC-14, the relative viability was determined as 0.903 in assay [1] (first compound 0.04 µM); 0.787 in assay [1] (first compound 0.1265 µM); 0.936 in assay [1] (first compound 0.4 µM); 0.785 in assay [1] (first compound 1.265 µM); 0.574 in assay [1] (first compound 4 µM); 0.823 in assay [2] (first compound 0.2 µM). For the same cell line, the relative viability in assay [2] (first compound 0.6325 µM) was 0.762; in assay [2] (first compound 2 µM) it was 0.611; in assay [2] (first compound 6.325 µM) it was 0.539; in assay [2] (first compound 20 µM), 0.631; in assay [3] (first compound 0.2 µM), 0.916; in assay [3] (first compound 0.6325 µM) it was 0.854. Besides, the relative viability in assay [3] (first compound 2 µM) was 0.805; in assay [3] (first compound 6.325 µM) it was 0.749; in assay [3] (first compound 20 µM) it was 0.766; in assay [4] (first compound 0.005 µM), 0.993; in assay [4] (first compound 0.01581 µM), 0.778; in assay [4] (first compound 0.05 µM) it was 0.83. For the same cell line, the relative viability in assay [4] (first compound 0.1581 µM) worked out at 0.623; in assay [4] (first compound 0.5 µM) it was 0.434.
As to RERF-LC-KJ, the relative viability in assay [1] (first compound 0.04 µM) is 1.32; in assay [1] (first compound 0.1265 µM), 1.09; in assay [1] (first compound 0.4 µM), 0.857; in assay [1] (first compound 1.265 µM) it was 0.916; in assay [1] (first compound 4 µM), 0.998; in assay [2] (first compound 0.2 µM), 0.407. Besides, the relative viability stood at 0.461 in assay [2] (first compound 0.6325 µM); 0.474 in assay [2] (first compound 2 µM); 0.432 in assay [2] (first compound 6.325 µM); 0.432 in assay [2] (first compound 20 µM); 0.528 in assay [3] (first compound 0.2 µM); 0.659 in assay [3] (first compound 0.6325 µM). Further, the relative viability in assay [3] (first compound 2 µM) was determined as 0.71; in assay [3] (first compound 6.325 µM), 0.539; in assay [3] (first compound 20 µM) it was 0.545; in assay [4] (first compound 0.005 µM), 1.43; in assay [4] (first compound 0.01581 µM), 1.17; in assay [4] (first compound 0.05 µM) it was 0.908. For the same cell line, the relative viability in assay [4] (first compound 0.1581 µM) was found to be 0.836; in assay [4] (first compound 0.5 µM) it was 0.728.
Turning to SK-LU-1, the relative viability in assay [1] (first compound 0.04 µM) is 1.26; in assay [1] (first compound 0.1265 µM), 0.962; in assay [1] (first compound 0.4 µM) it was 1.1; in assay [1] (first compound 1.265 µM), 0.879; in assay [1] (first compound 4 µM), 0.739; in assay [2] (first compound 0.2 µM), 0.634. Moreover, the relative viability in assay [2] (first compound 0.6325 µM) turned out to be 0.56; in assay [2] (first compound 2 µM) it was 0.672; in assay [2] (first compound 6.325 µM), 0.473; in assay [2] (first compound 20 µM), 0.486; in assay [3] (first compound 0.2 µM), 0.36; in assay [3] (first compound 0.6325 µM) it was 0.388. The relative viability in assay [3] (first compound 2 µM) stood at 0.398; in assay [3] (first compound 6.325 µM), 0.315; in assay [3] (first compound 20 µM), 0.396; in assay [4] (first compound 0.005 µM), 0.975; in assay [4] (first compound 0.01581 µM) it was 1.26; in assay [4] (first compound 0.05 µM) it was 0.763. The relative viability in assay [4] (first compound 0.1581 µM) was 0.673; in assay [4] (first compound 0.5 µM), 0.362.
As to SW 1573, the relative viability in assay [1] (first compound 0.04 µM) was found to be 1.07; in assay [1] (first compound 0.1265 µM) it was 1.19; in assay [1] (first compound 0.4 µM), 1.1; in assay [1] (first compound 1.265 µM), 1.11; in assay [1] (first compound 4 µM) it was 0.834; in assay [2] (first compound 0.2 µM) it was 0.397. Also, the relative viability in assay [2] (first compound 0.6325 µM) came out at 0.412; in assay [2] (first compound 2 µM), 0.355; in assay [2] (first compound 6.325 µM), 0.363; in assay [2] (first compound 20 µM), 0.398; in assay [3] (first compound 0.2 µM), 0.603; in assay [3] (first compound 0.6325 µM), 0.724. Besides, the relative viability in assay [3] (first compound 2 µM) came to 0.756; in assay [3] (first compound 6.325 µM), 0.599; in assay [3] (first compound 20 µM), 0.617; in assay [4] (first compound 0.005 µM), 1.2; in assay [4] (first compound 0.01581 µM) it was 1.05; in assay [4] (first compound 0.05 µM), 0.842. Further, the relative viability is 0.916 in assay [4] (first compound 0.1581 µM) and 0.727 in assay [4] (first compound 0.5 µM).
